Data reported in patent publication US8609870B2, “Treating various disorders using TrkB agonists” (Emory University, priority 2008, dated 2013).
pKd: −log10 of the molar value.

Tests used:
TrkB = target: T1, TrkB (Homo sapiens, UniProt Q16620); experiment: TrkB dimerization assay (GST pull-down, transfected HEK293 cells); format: cell-based
T1 construct: expressed in transfected cells; host or cells: HEK293
Experimental: HEK293 cells transfected with GST-TrkB and HA-TrkA or TrkB were washed once in PBS, and lysed in 1 ml lysis buffer (50 mM Tris, pH 7.4, 150 mM NaCl, 1 mM EDTA, 0.5% Triton X-100, 1.5 mM Na3VO4, 50 mM NaF, 10 mM sodium pyrophosphate, 10 mM sodium β-glycerophosphate, 1 mM phenylmethylsulfonyl fluoride (PMSF), […], […] leupeptin, […] pepstatin A), and centrifuged for 10 minutes at 14,000×g at 4° C. The supernatant was then transferred to a fresh tube and transfected TrkB receptor was pulled down with glutathione beads. The coprecipitated proteins were resolved on SDS-PAGE. The samples were transferred to a nitrocellular membrane, and immunoblotting analysis was performed with a variety of antibodies.
BDNF is known to bind the TrkB receptor and provoke its dimerization (Barbacid, J. Neurobiol., 25:1386-1403, 1994; Klein et al, Cell, 66:395-403, 1991). To explore whether an identified active compound triggers TrkB receptor dimerization, HEK293 cells are cotransfected with GST-TrkB and HA-TrkB or HA-TrkA. The cells then are treated with BDNF or an identified active compound (0.5 μM) for 30 minutes. […]

BDNF −/− pups = experiment: Vestibular ganglion loss in BDNF −/− pups; format: in vivo, mouse
Experimental: The cochleae of various drug-treated pups (P1 or P2 BDNF +/+ and −/− pups) were first fixed through cardioperfusion of 4% paraformaldehyde (in PBS). Each cochlea was dissected out and postfixed in 1% osmium for one hour at room temperature. Samples were decalcified in 0.35 M EDTA (pH 7.5, in PBS) for 72 hours at 4° C., followed by gradual dehydration in graded alcohols, infiltrated, and embedded in epoxy resin with the conventional protocols. Consecutive cochlear sections (5 μm in thickness) were cut with a microtome (Microm HM335E, GmbH) along the axis of the modiolus. Sections were stained with toluidine blue. Vestibular ganglions were identified by their location in the auditory internal meatus with the basal cochlear turn and the cochlear modiolus as morphological reference landmarks.
To examine whether deoxygedunin activating TrkB involved endogenous BDNF, BDNF conditional knockout mice with BDNF gene deletion limited to cortex (thus allowing normal development) were used. Deoxygedunin (5 mg/kg) was intraperitoneally injected into the BDNF cortex conditional knockout mice and the mice were sacrificed at 4 hours. […] Mutant mice lacking BDNF were known to have severe deficiencies in coordination and balance, which have been associated with excessive degeneration in several sensory ganglia including the vestibular ganglion (Ernfors et al., Nature 368, 147-150 (1994)). To determine whether deoxygedunin rescued this loss of vestibular ganglions in BDNF −/− pups, conventional BDNF +/− mice were bred with the same genotype mice. Deoxygedunin (5 mg/kg, i.p.) was administered to the pregnant mice at day E7.5 until birth.

TrkA = TrkA (Mus musculus, UniProt Q3UFB7); experiment: TrkA phosphorylation in mouse brain after i.p. injection; format: in vivo; set-up: endogenous in cells; conditions: mice, 5 mg/kg i.p.
Chain of TrkA (Q3UFB7 34-799): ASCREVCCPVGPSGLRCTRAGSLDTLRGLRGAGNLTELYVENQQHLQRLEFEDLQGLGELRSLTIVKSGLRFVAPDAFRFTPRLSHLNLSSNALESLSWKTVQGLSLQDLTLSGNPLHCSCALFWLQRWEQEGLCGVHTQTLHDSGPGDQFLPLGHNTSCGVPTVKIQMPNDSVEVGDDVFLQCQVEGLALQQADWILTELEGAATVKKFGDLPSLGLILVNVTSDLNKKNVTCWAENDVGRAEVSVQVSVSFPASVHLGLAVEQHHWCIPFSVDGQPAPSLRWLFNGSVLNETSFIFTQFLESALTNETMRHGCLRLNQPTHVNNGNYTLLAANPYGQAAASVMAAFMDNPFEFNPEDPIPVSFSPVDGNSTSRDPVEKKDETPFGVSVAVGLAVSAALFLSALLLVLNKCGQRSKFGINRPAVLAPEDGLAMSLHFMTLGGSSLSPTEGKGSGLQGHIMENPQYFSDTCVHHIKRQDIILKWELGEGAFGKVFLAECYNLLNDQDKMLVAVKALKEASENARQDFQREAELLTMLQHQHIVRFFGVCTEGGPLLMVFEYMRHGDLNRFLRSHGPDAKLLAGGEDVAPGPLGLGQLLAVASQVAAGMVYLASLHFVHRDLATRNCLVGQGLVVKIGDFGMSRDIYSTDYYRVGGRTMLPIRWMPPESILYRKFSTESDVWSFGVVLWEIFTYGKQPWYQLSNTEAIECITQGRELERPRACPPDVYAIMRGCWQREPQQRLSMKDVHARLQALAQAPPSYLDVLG

[1] = target: TrkB extra-cellular domain (ECD) (Homo sapiens, UniProt Q16620); experiment: [3H]-deoxygedunin ligand binding assay, TrkB ECD (Scatchard plot)
Chain of TrkB extra-cellular domain (ECD) (Q16620 32-430 limits assumed): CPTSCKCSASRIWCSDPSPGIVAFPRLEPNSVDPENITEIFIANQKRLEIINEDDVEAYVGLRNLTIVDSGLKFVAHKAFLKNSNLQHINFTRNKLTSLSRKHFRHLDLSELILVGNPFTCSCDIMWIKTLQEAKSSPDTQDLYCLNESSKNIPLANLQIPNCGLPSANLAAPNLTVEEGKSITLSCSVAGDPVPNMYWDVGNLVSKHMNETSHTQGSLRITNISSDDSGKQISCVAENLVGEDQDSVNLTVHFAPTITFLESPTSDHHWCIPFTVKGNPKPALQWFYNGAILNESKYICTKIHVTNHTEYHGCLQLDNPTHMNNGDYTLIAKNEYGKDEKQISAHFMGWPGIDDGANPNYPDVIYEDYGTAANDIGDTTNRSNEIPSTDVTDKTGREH
Experimental: Purified TrkB ECD or ICD proteins (10 μg/each) were incubated with different [^3H-deoxygedunin] in 1 ml binding buffer (0.05 M Na/K phosphate buffer (pH 7.1), 200 mM NaCl) (1 nM [^3H]deoxygedunin˜82300 cpm) at 4° C. for 10 minutes. After incubation, the reaction mixture was loaded on filter paper and washed with 3×5 ml Tris buffer (100 mM Tris, pH 7.1). The dried filter paper was put into a small vial and subjected to liquid scintillation counter analysis. The value of the dissociation constant and the number of sites were obtained from Scatchard plots by using the equation r/[L]free=n/Kd−r/Kd, where r is the ratio of the concentration of bound ligand to the total protein concentration and n is the number of binding sites.
To determine whether an identified active compound physically and directly binds to the TrkB receptor, in vitro binding assays can be conducted with purified TrkB extracellular domain (ECD) and intracellular domain (ICD) recombinant proteins. Purified TrkB ECD and ICD (10 μg of each) are incubated with different concentrations of ^3H-labeled identified active compound in 1 ml of binding buffer (0.05M Na/K phosphate buffer, pH 7.1, 200 mM NaCl) at 4° C. for 10 minutes. After the incubation, the reaction mixture is loaded on filter paper. The mixture is washed three times with Tris buffer (100 mM Tris, pH 7.1), and the dried filter paper is put into a small vial and subjected to liquid scintillation counter analysis. […] The value of the dissociate constant and the number of sites will then be obtained from Scatchard plots using the equation r/[L]free=n/Kd−r/Kd, where r is the ratio of the concentration of bound ligand to the total protein concentration and n is the number of binding sites.
To determine whether deoxygedunin binds the intra-cellular domain (ICD) or extra-cellular domain (ECD) of the TrkB receptor, ligand binding assays with [^3H]-deoxygedunin were performed. […] The coprecipitated HA-TrkB was also prominently tyrosine phosphorylated (see FIG. 14, 3rd panel).

T1 sequence (Q16620 32-822, species assumed): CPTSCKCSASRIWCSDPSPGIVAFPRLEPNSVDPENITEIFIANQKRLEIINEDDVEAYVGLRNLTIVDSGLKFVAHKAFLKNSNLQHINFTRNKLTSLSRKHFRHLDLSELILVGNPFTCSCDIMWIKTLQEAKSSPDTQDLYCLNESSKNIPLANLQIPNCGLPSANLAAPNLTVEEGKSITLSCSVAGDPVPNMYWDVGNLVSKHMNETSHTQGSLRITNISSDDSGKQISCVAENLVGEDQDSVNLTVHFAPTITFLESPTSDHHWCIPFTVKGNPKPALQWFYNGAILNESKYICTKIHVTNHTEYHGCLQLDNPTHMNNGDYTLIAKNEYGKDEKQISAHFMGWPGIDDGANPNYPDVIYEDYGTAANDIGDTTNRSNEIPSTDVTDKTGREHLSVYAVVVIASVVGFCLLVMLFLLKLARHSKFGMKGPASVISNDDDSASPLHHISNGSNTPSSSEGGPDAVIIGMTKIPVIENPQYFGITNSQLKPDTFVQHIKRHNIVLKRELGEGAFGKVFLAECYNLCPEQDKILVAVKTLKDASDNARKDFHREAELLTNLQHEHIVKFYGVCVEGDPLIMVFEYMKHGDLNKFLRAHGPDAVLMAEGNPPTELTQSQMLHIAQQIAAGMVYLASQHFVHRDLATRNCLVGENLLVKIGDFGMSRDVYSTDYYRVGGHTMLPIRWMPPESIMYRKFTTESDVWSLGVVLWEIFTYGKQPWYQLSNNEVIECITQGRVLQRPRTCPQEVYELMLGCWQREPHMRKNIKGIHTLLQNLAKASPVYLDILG
T1 sequence (Q16620 32-822, species assumed): as above

Question: What does the source list for `CC(=O)O[C@@H]1C[C@H]2C(C)(C)C(=O)C=C[C@]2(C)[C@H]2CC[C@]3(C)C(=CC(=O)O[C@H]3c3ccoc3)[C@@]21C` [deoxygedunin]?
Answer: TrkB dimerization (TrkB): robustly provoked TrkB dimerization with an effect even stronger than BDNF; vestibular ganglia in stained inner ear sections (BDNF −/− pups; BDNF mutant pups, 5 mg/kg i.p.): displayed intact vestibular ganglia; vestibular ganglia detected (quantitative analysis) (BDNF −/− pups; BDNF −/− pups, 5 mg/kg i.p. to pregnant mice from E7.5 and to pups): 42.2±6.3%; survival of BDNF −/− pups under treatment (BDNF −/− pups; neonatal pups receiving 5 mg/kg deoxygedunin): continued dying at P1 or P2; TrkA phosphorylation in the brain (TrkA): not TrkA; pKd ([1]; Scatchard plot analysis, read-out: binding constant Kd): 5.85; major binding site in TrkB ECD (truncation assays) ([1]; TrkB ECD truncation mutants): Ig2 domain
